Results: PMC7203973 (ACS Omega, 2020)

How the values were obtained:
[1] = cited from earlier work
[2] = marketed drugs; cited from earlier work
[3] = cited from earlier work; remark: listed apart in the source
[4] = cited from earlier work; remark: listed apart in the source
[5] = Permeability by PAMPA; type: in vitro ADME
[6] = cited from earlier work; remark: listed apart in the source

## CO[C@H]1C[C@@H]2CC[C@@H](C)[C@@](O)(O2)C(=O)C(=O)N2CCCC[C@H]2C(=O)O[C@H]([C@H](C)C[C@@H]2CC[C@@H](O)[C@H](OC)C2)CC(=O)[C@H](C)/C=C(\C)[C@@H](O)[C@@H](OC)C(=O)[C@H](C)C[C@H](C)/C=C/C=C/C=C/1C [rapamycin]
[1]
  blood-to-plasma ratio (KRBC/Plasma), reported in the literature: 3.5 ± 0.5

## CCOC(=O)[C@H](CCc1ccccc1)N[C@@H](C)C(=O)N1CCC[C@H]1C(=O)O [enalapril]
[2]
  stability in rat plasma versus human plasma: very less stable in rat plasma but more stable in human plasma

## CO[C@H]1/C=C/O[C@@]2(C)Oc3c(C)c(O)c4c(O)c(c(/C=N/N5CCN(C)CC5)c(O)c4c3C2=O)NC(=O)/C(C)=C\C=C\[C@H](C)[C@H](O)[C@@H](C)[C@@H](O)[C@@H](C)[C@H](OC(C)=O)[C@@H]1C [rifampicin]
[3]
  plasma protein binding, reported results: 82–92%

## NS(=O)(=O)c1cc(C2(O)NC(=O)c3ccccc32)ccc1Cl (stereo not drawn) [chlorthalidone]
[1]
  blood-to-plasma ratio (KRBC/Plasma), reported in the literature: 20.0 ± 0.3

## C[C@]12CC[C@H]3[C@@H](CCC4=CC(=O)CC[C@@]43C)[C@@H]1CC[C@@H]2O [testosterone]
[4]
  permeability (log Pe), reported results: −3.5 to −4.9
[5]
  Papp at 5 h, 25 μM: 102 ×10⁻⁶ cm/s
[6]
  partition coefficient (log P), reported value: around 3.28

## CCN(CC)CCCC(C)Nc1ccnc2cc(Cl)ccc12 (stereo not drawn) [chloroquine]
[1]
  blood-to-plasma ratio (KRBC/Plasma), reported in the literature: 8.5 ± 0.1

## CCN(CC)CCOC(=O)c1ccc(N)cc1 [procaine]
[2]
  stability in rat plasma versus human plasma: vice verse
